{
  "source": "patent US8956445B2",
  "about": "“High stability diionic liquid salts” (Sigma-Aldrich Co., priority 2004, dated 2015)",
  "remark": "listed apart in the source",
  "key": {"[1]": {"settings": "values taken from reference 31, cited from earlier work"}, "[2]": {"method": "Thermal stabilities were measured by immobilizing an approximate 0.15-0.20 microns film of the ionic liquid on the inner wall of a fused silica capillary. The capillary was then heated slowly in an oven and a very sensitive flame ionization detector (or mass spectrometer) used to detect any volatilization or decomposition of the ionic liquid. There are several advantages of using this set-up to measure the thermal stabilities of ionic liquids. The thermal stability is measured in the absence of oxygen by purging the capillary with a continuous flow of an inert gas such as helium, hydrogen, or nitrogen. […] Finally, this approach can use mass spectrometry detection to determine the likely volatilization/decomposition products."}, "[3]": {"test": "Surface tension (DuNuoy Tensiometer)", "format": "physicochemical", "settings": "room temperature (23° C.)"}, "[4]": {"test": "Refractive index (Abbe-3L refractometer)", "format": "physicochemical", "settings": "23° C.", "method": "(§1) The densities of the ionic liquids or, more correctly, […] (used synonymously except as indicated otherwise explicitly or by context) was determined at 23° C. by placing 2.0 mL of the ionic liquid in a 2.0 mL volumetric tube and weighing by difference. The melting points of the ionic liquids were determined using a Perkin Elmer Pyris 1 Differential Scanning calorimeter (Boston, Mass.). Typical methods involved using a 10° C./min temperature ramp to determine and identify the first and second order thermal transitions. […] For solid compounds, the melting points were verified using a capillary melting point apparatus. Refractive index measurements were conducted at 23° C. using a Bausch & Lomb Abbe-3L refractometer."}, "[5]": {"test": "Density (2.0 mL volumetric tube, weighing by difference)", "format": "physicochemical", "settings": "23° C.", "method": "as §1"}},
  "note": "Read-outs that look alike come from different tables or passages of the source.",
  "data": [
    {"smiles": "CCCCn1cc[n+](C)c1.O=S(=O)([N-]S(=O)(=O)C(F)(F)F)C(F)(F)F", "note": "[BMIM—NTf2, 1-butyl-3-methylimidazolium bis[(trifluoromethylsulfonyl)imide]]", "values": [
      {"measurement": "a (hydrogen bond basicity)", "setting": "[1]; 40° C.", "value": 2.02},
      {"measurement": "b (hydrogen bond acidity)", "setting": "[1]; 40° C.", "value": 0.36},
      {"measurement": "c (interaction parameter table, constant)", "setting": "[1]; 40° C.", "value": "−2.87"},
      {"measurement": "l (dispersion forces)", "setting": "[1]; 40° C.", "value": 0.63},
      {"measurement": "r (interaction via nonbonding and π-electrons)", "setting": "[1]; 40° C.", "value": 0},
      {"measurement": "s (dipolarity/polarizability)", "setting": "[1]; 40° C.", "value": 1.89},
      {"measurement": "a (hydrogen bond basicity)", "setting": "[1]; 70° C.", "value": 1.75},
      {"measurement": "b (hydrogen bond acidity)", "setting": "[1]; 70° C.", "value": 0.38},
      {"measurement": "c (interaction parameter table, constant)", "setting": "[1]; 70° C.", "value": "−3.03"},
      {"measurement": "l (dispersion forces)", "setting": "[1]; 70° C.", "value": 0.56},
      {"measurement": "r (interaction via nonbonding and π-electrons)", "setting": "[1]; 70° C.", "value": 0},
      {"measurement": "s (dipolarity/polarizability)", "setting": "[1]; 70° C.", "value": 1.67},
      {"measurement": "a (hydrogen bond basicity)", "setting": "[1]; 100° C.", "value": 1.55},
      {"measurement": "b (hydrogen bond acidity)", "setting": "[1]; 100° C.", "value": 0.24},
      {"measurement": "c (interaction parameter table, constant)", "setting": "[1]; 100° C.", "value": "−3.13"},
      {"measurement": "l (dispersion forces)", "setting": "[1]; 100° C.", "value": 0.49},
      {"measurement": "r (interaction via nonbonding and π-electrons)", "setting": "[1]; 100° C.", "value": 0},
      {"measurement": "s (dipolarity/polarizability)", "setting": "[1]; 100° C.", "value": 1.60},
      {"measurement": "thermal stability (volatilization/decomposition temperature)", "setting": "[2]; 0.15-0.20 micron film in fused silica capillary, helium flow, FID, tested only up to 400° C.", "value": 185, "unit": "°C"}
    ]},
    {"smiles": "Cn1cc[n+](CCCCCC[n+]2ccn(C)c2)c1.O=S(=O)([N-]S(=O)(=O)C(F)(F)F)C(F)(F)F.O=S(=O)([N-]S(=O)(=O)C(F)(F)F)C(F)(F)F", "note": "[C6(mim)2-NTf2, 1,6-di(3-methylimidazolium)hexane di-bis[(trifluoromethyl)sulfonyl]imida]", "values": [
      {"measurement": "Surface Tension", "setting": "[3]", "value": 44.2, "unit": "dynes/cm"},
      {"measurement": "Miscibility with Heptane", "value": "Immiscible"},
      {"measurement": "Miscibility with Water", "value": "Immiscible"},
      {"measurement": "Refractive Index", "setting": "[4]", "value": 1.441},
      {"measurement": "Density", "setting": "[5]", "value": 1.52, "unit": "g/mL"}
    ]},
    {"smiles": "CCCCn1cc[n+](CCCCCCCCC[n+]2ccn(CCCC)c2)c1.F[B-](F)(F)F.F[B-](F)(F)F", "note": "[C9(bim)2-BF4, 1,9-di(3-butylimidazolium)nonane di-tetrafluoroborate]", "values": [
      {"measurement": "Surface Tension", "setting": "[3]", "value": 50.4, "unit": "dynes/cm"},
      {"measurement": "Miscibility with Heptane", "value": "Immiscible"},
      {"measurement": "Miscibility with Water", "value": "Partially"},
      {"measurement": "Miscibility with Water", "setting": "listed as 19", "value": "solubility of the salt in water decreases"},
      {"measurement": "Refractive Index", "setting": "[4]", "value": 1.503},
      {"measurement": "Density", "setting": "[5]", "value": 1.20, "unit": "g/mL"}
    ]},
    {"smiles": "CCCCn1cc[n+](CCCCCCCCC[n+]2ccn(CCCC)c2)c1.O=S(=O)([N-]S(=O)(=O)C(F)(F)F)C(F)(F)F.O=S(=O)([N-]S(=O)(=O)C(F)(F)F)C(F)(F)F", "note": "[C9(bim)2-NTf2, 1,9-di(3-butylimidazolium)nonane di-bis[(trifluoromethyl)sulfonyl]imidate]", "values": [
      {"measurement": "Surface Tension", "setting": "[3]", "value": 38.0, "unit": "dynes/cm"},
      {"measurement": "Miscibility with Heptane", "value": "Immiscible"},
      {"measurement": "Miscibility with Water", "value": "Immiscible"},
      {"measurement": "Refractive Index", "setting": "[4]", "value": 1.446},
      {"measurement": "Density", "setting": "[5]", "value": 1.35, "unit": "g/mL"}
    ]},
    {"smiles": "CCCCn1cc[n+](CCCCCCCCC[n+]2ccn(CCCC)c2)c1.F[P-](F)(F)(F)(F)F.F[P-](F)(F)(F)(F)F", "note": "[C9(bim)2-PF6, 1,9-di(3-butylimidazolium)nonane di-hexafluorophosphate]", "values": [
      {"measurement": "Surface Tension", "setting": "[3]", "value": 48.0, "unit": "dynes/cm"},
      {"measurement": "Miscibility with Heptane", "value": "Immiscible"},
      {"measurement": "Miscibility with Water", "value": "Immiscible"},
      {"measurement": "Refractive Index", "setting": "[4]", "value": 1.439},
      {"measurement": "Density", "setting": "[5]", "value": 1.30, "unit": "g/mL"}
    ]},
    {"smiles": "CCCC[N+]1(CCCCCCCCC[N+]2(CCCC)CCCC2)CCCC1.O=S(=O)([N-]S(=O)(=O)C(F)(F)F)C(F)(F)F.O=S(=O)([N-]S(=O)(=O)C(F)(F)F)C(F)(F)F", "note": "[C9(bpy)2-NTf2, 1,9-di(butylpyrrolidinium)nonane di-bis[(trifluoromethyl)sulfonyl]imida]", "values": [
      {"measurement": "Miscibility with Heptane", "value": "Immiscible"},
      {"measurement": "Miscibility with Water", "value": "Immiscible"},
      {"measurement": "thermal stability (volatilization/decomposition temperature)", "setting": "[2]", "value": 330, "unit": "°C"}
    ]},
    {"smiles": "Cc1n(C)cc[n+]1CCCCCCCCC[n+]1ccn(C)c1C.F[B-](F)(F)F.F[B-](F)(F)F", "note": "[C9(m2im)2-BF4, 1,9-di(2,3-dimethylimidazolium)nonane di-tetrafluoroborate]", "values": [
      {"measurement": "Surface Tension", "setting": "[3]", "value": 58.1, "unit": "dynes/cm"},
      {"measurement": "Miscibility with Heptane", "value": "Immiscible"},
      {"measurement": "Miscibility with Water", "value": "Miscible"},
      {"measurement": "Refractive Index", "setting": "[4]", "value": 1.456},
      {"measurement": "Density", "setting": "[5]", "value": 1.31, "unit": "g/mL"}
    ]},
    {"smiles": "Cc1n(C)cc[n+]1CCCCCCCCC[n+]1ccn(C)c1C.O=S(=O)([N-]S(=O)(=O)C(F)(F)F)C(F)(F)F.O=S(=O)([N-]S(=O)(=O)C(F)(F)F)C(F)(F)F", "note": "[C9(m2im)2-NTf2, 1,9-di(2,3-dimethylimidazolium)nonane di-bis[(trifluoromethyl)sulfonyl]imidate]", "values": [
      {"measurement": "Surface Tension", "setting": "[3]", "value": 43.5, "unit": "dynes/cm"},
      {"measurement": "Miscibility with Heptane", "value": "Immiscible"},
      {"measurement": "Miscibility with Water", "value": "Immiscible"},
      {"measurement": "Refractive Index", "setting": "[4]", "value": 1.448},
      {"measurement": "Density", "setting": "[5]", "value": 1.47, "unit": "g/mL"}
    ]},
    {"smiles": "Cn1cc[n+](CCCCCCCCC[n+]2ccn(C)c2)c1.F[B-](F)(F)F.F[B-](F)(F)F", "note": "[C9(mim)2-BF4, 1,9-di(3-methylimidazolium)nonane di-tetrafluoroborate]", "values": [
      {"measurement": "Surface Tension", "setting": "[3]", "value": 61.2, "unit": "dynes/cm"},
      {"measurement": "Miscibility with Heptane", "value": "Immiscible"},
      {"measurement": "Miscibility with Water", "value": "Miscible"},
      {"measurement": "Refractive Index", "setting": "[4]", "value": 1.469},
      {"measurement": "Density", "setting": "[5]", "value": 1.33, "unit": "g/mL"}
    ]},
    {"smiles": "F[P-](F)(F)(F)(F)F.F[P-](F)(F)(F)(F)F.c1ccc(Cn2cc[n+](CCCCCCCCCCCC[n+]3ccn(Cc4ccccc4)c3)c2)cc1", "note": "[C12(benzim)2-PF6, 1,12-di(3-benzylimidazolium)dodecane di-hexafluorophosphate]", "values": [
      {"measurement": "Surface Tension", "setting": "[3]", "value": 47.4, "unit": "dynes/cm"},
      {"measurement": "Miscibility with Heptane", "value": "Immiscible"},
      {"measurement": "Miscibility with Water", "value": "Immiscible"},
      {"measurement": "Refractive Index", "setting": "[4]", "value": 1.484},
      {"measurement": "Density", "setting": "[5]", "value": 1.27, "unit": "g/mL"}
    ]},
    {"smiles": "Cn1cc[n+](CCCCCCCCCCCC[n+]2ccn(C)c2)c1.F[B-](F)(F)F.F[B-](F)(F)F", "note": "[C12(mim)2-BF4, 1,12-di(3-methylimidazolium)dodecane di-tetrafluoroborate]", "values": [
      {"measurement": "Surface Tension", "setting": "[3]", "value": 55.8, "unit": "dynes/cm"},
      {"measurement": "Miscibility with Heptane", "value": "Immiscible"},
      {"measurement": "Miscibility with Water", "value": "Partially"},
      {"measurement": "Miscibility with Water", "setting": "listed as 15", "value": "solubility of the salt in water decreases"},
      {"measurement": "Refractive Index", "setting": "[4]", "value": 1.503},
      {"measurement": "Density", "setting": "[5]", "value": 1.26, "unit": "g/mL"}
    ]},
    {"smiles": "Cn1cc[n+](CCCCCCCCCCCC[n+]2ccn(C)c2)c1.O=S(=O)([N-]S(=O)(=O)C(F)(F)F)C(F)(F)F.O=S(=O)([N-]S(=O)(=O)C(F)(F)F)C(F)(F)F", "note": "[C12(mim)2-NTf2, 1,12-di(3-methylimidazolium)dodecane di-bis[(trifluoromethyl)sulfonyl]imidate]", "values": [
      {"measurement": "Surface Tension", "setting": "[3]", "value": 42.3, "unit": "dynes/cm"},
      {"measurement": "Miscibility with Heptane", "value": "Immiscible"},
      {"measurement": "Miscibility with Water", "value": "Immiscible"},
      {"measurement": "Refractive Index", "setting": "[4]", "value": 1.443},
      {"measurement": "Density", "setting": "[5]", "value": 1.40, "unit": "g/mL"}
    ]},
    {"smiles": "Cn1cc[n+](CCCCCCCCCCCC[n+]2ccn(C)c2)c1.F[P-](F)(F)(F)(F)F.F[P-](F)(F)(F)(F)F", "note": "[C12(mim)2-PF6, 1,12-di(3-methylimidazolium)dodecane di-hexafluorophosphate]", "values": [
      {"measurement": "Surface Tension", "setting": "[3]", "value": 53.4, "unit": "dynes/cm"},
      {"measurement": "Miscibility with Heptane", "value": "Immiscible"},
      {"measurement": "Miscibility with Water", "value": "Immiscible"},
      {"measurement": "Refractive Index", "setting": "[4]", "value": 1.436},
      {"measurement": "Density", "setting": "[5]", "value": 1.36, "unit": "g/mL"}
    ]}
  ]
}
